In patent publication US11548880B2, “Modulators of hemoglobin” (Global Blood Therapeutics, Inc., priority 2018, dated 2023):

Tests used:
[1] = target: T1, Hb (Homo sapiens, UniProt P68871+P69905); assay: Whole blood assay: oxygen equilibrium curves (Hemox Analyzer), change in p50; format: cell-based; settings: whole blood incubated 1 h at 37° C., equimolar ratio of hemoglobin to compound
T1 construct: from tissue; host or cells: whole blood
Protocol: Whole blood assay: Oxygen equilibrium curves (OECs) were collected using a TCS Hemox Analyzer (TCS Scientific Company, New Hope, Pa., USA) to measure changes in the binding affinity of O2 to Hb. Whole blood was incubated for 1 h at 37° C. with the indicated compounds in an equimolar ratio of hemoglobin to compound and diluted into TES (2-[[1,3-dihydroxy-2-(hydroxymethyl)propan-2-yl]amino]ethanesulfonic acid)/saline buffer prior to measurements. For example, for whole blood at 20% hematocrit [Hct], which corresponds to 1 mM Hb, a compound concentration of 1 mM was used (for example, for compounds 1-5), and the incubated sample diluted 50- to 100-fold. The concentration for compounds 6-44 (Diastereomers 1 and 2) varied but remained in equimolar ratio to hemoglobin. The diluted samples were then oxygenated with compressed air within the Hemox Analyzer and the OECs were collected during deoxygenation as previously described (Guarnone et al., Haematologica, 1995, 80, 426-430). p 50 (partial pressure of O2 at which Hb is 50% saturated with O2) values were obtained using a non-linear regression analysis. Percentage change in p50 [Δp50(%)] was calculated as follows: Δp50(%)=[(p50 of control)−p50 with compound)/p50 control]×100.

[2] = Rat PK, oral gavage; format: in vivo, Sprague-Dawley rats; settings: oral gavage 10 mg/kg; for blood plasma ratio / half-life: male, Sprague-Dawley, rat, po, 10 mg/kg; for blood plasma ratio: whole blood and plasma; for half-life: whole blood
Protocol: Rat PK: A group of fasted male Sprague-Dawley rats were dosed via oral gavage at 10 mg/kg with test articles formulated in 0.5% methylcellulose suspension. Blood samples were collected through jugular vein at pre-selected time points. Blood samples were prepared by protein precipitation with ACN, vortexed and then centrifuged before supernatants were transferred for bioanalysis. Test article concentrations were measured by HPLC-MS-MS. Pharmacokinetic parameters were calculated using non-compartment analysis. The blood/plasma ratio was calculated by dividing the AUClast (i.e., the area under the curve calculated from t=0 to the last detectable time-point) in blood by the AUClast in plasma. The T1/2 was calculated via a linear regression of the terminal phase of the blood-time concentration profile.

[3] = target: T2, PXR nuclear receptor (Homo sapiens, UniProt O75469); assay: CYP (PXR) assay: PXR nuclear receptor activation in DPX2 reporter cells; format: cell-based; settings: fold PXR activation, 24 h
T2 construct: expressed in transfected cells; host or cells: DPX2 (stably transfected human hepatoma cells)
T2 sequence (O75469 1-434): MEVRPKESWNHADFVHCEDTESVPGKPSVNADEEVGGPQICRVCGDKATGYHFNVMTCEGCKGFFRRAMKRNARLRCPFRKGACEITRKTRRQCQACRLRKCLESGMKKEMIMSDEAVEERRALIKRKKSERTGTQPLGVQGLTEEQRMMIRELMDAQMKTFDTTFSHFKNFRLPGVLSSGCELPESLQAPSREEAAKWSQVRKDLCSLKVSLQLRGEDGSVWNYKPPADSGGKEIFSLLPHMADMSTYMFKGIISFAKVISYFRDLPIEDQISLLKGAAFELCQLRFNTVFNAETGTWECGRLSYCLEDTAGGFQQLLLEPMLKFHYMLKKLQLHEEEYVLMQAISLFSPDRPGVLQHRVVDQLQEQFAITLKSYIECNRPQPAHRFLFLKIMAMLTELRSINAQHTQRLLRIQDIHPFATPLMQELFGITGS
Protocol: CYP (PXR) Assay: PXR nuclear receptor activation utilizing stably-transfected human hepatoma cell lines (DPX2) were seeded in a 96-well plate. Twenty-four hours after seeding, the cells were treated with selected concentrations of compounds in duplicate wells, and cells then returned to the incubator for an additional 24 h. At the end of this incubation period, the number of viable cells/well were determined using Promega's Cell Titer Fluor cytotoxicity assay. Subsequently, Promega's ONE-Glo were added to the same wells and reporter gene activity were assessed. The average luminescent units for each compound dose of two replicates were divided by the average for the DMSO solvent control to determine the fold-induction. In accordance with industry standard, a threshold of ≥2.5-fold was used to flag compounds that have in vivo CYP induction risk.

[4] = AUClast in blood divided by AUClast in plasma, rats
[5] = fasted male Sprague-Dawley rats, 0.5% methylcellulose suspension, blood

T1 sequence (P69905 2-142 limits assumed): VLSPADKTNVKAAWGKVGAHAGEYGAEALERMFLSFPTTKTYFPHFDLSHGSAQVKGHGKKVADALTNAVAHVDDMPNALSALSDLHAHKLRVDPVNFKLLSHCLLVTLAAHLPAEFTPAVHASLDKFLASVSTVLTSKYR
T1 sequence (P68871 2-147 limits assumed): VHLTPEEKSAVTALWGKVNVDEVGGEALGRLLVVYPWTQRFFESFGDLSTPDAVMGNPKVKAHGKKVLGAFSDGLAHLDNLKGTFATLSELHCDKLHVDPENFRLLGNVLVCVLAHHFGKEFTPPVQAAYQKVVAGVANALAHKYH

SMILES	Delta-p50 (%) [1]	blood plasma ratio [2, 4]	half-life [2, 5]	other results
O=Cc1c(O)cccc1OC[C@@H]1CCCCN1C(=O)c1cccnc1CO [Compound 11, (S)-2-hydroxy-6-((1-(2-(hydroxymethyl)nicotinoyl)piperidin-2-yl)methoxy)benzaldehyde]	79.3%	126	55 h	–
O=Cc1c(O)cccc1OC[C@@H]1CCCCN1C(=O)c1cccnc1 [Reference Compound A, reference compound]	–	75	29 h	CYP (PXR) Flag ([3]; at 30 μM): Y (PXR activation ≥ 2.5-fold)
O=Cc1c(O)cccc1OC[C@@H]1COCCN1C(=O)c1ccccc1 [Reference Compound B, reference compound]	–	98	29.8 h	CYP (PXR) Flag ([3]; at 30 μM): Y (PXR activation ≥ 2.5-fold)
O=Cc1c(O)cccc1OCC1CSCCN1C(=O)c1ccccc1CO (single isomer, unassigned) [40 (Enantiomer 2)]	83.36%	424	117 h	–
CC(C)(O)Cc1ncccc1C(=O)N1CCOC[C@H]1COc1cccc(O)c1C=O [Compound 39, 2-hydroxy-6-{[(3S)-4-[2-(2-hydroxy-2-methylpropyl)pyridine-3-carbonyl]morpholin-3-yl]methoxy}benzaldehyde]	77.98%	52	52 h	–
O=Cc1c(O)cccc1OC[C@@H]1CCCCN1C(=O)c1cccnc1C(O)CO (stereo partly drawn) [Compound 36, 2-{[(2S)-1-[2-(1,2-dihydroxyethyl)pyridine-3-carbonyl]piperidin-2-yl]methoxy}-6-hydroxybenzaldehyde]	77.04%	115	56 h	–
O=Cc1c(O)cccc1OC[C@@H]1COCCN1C(=O)c1cccnc1CO [Compound 12, (S)-2-hydroxy-6-((4-(2-(hydroxymethyl)nicotinoyl)morpholin-3-yl)methoxy)benzaldehyde]	76.7%	131	58 h	CYP (PXR) Flag ([3]; at 30 μM): N (PXR activation < 2.5-fold)
O=Cc1c(O)cccc1OC[C@@H]1CSCCN1C(=O)c1ccccc1C(O)CO (single isomer, unassigned) [35 (Diastereomer 1)]	81.35%	493	102 h	–
COCCc1ncccc1C(=O)N1CCOC[C@H]1COc1cccc(O)c1C=O [Compound 20, 2-hydroxy-6-{[(3S)-4-[2-(2-methoxyethyl)pyridine-3-carbonyl]morpholin-3-yl]methoxy}benzaldehyde]	78.32%	45	65 h	–
O=Cc1c(O)cccc1OC[C@@H]1COCCN1C(=O)c1cccnc1CCO [Compound 8, (S)-2-hydroxy-6-((4-(2-(2-hydroxyethyl)nicotinoyl)morpholin-3-yl)methoxy)benzaldehyde]	79.8%	105	69 h	CYP (PXR) Flag ([3]; at 30 μM): N (PXR activation < 2.5-fold)
O=Cc1c(O)cccc1OC[C@@H]1CCCCN1C(=O)c1ccccc1C(O)CO (single isomer, unassigned) [34 (Diastereomer 1)]	80.43%	–	–	–
O=Cc1c(O)cccc1OC[C@@H]1CCCCN1C(=O)c1cccnc1CCN1CCCC1 [Compound 4, (S)-2-hydroxy-6-((1-(2-(2-(pyrrolidin-1-yl)ethyl)nicotinoyl)piperidin-2-yl)methoxy)benzaldehyde]	75.5%	–	–	–
O=Cc1c(O)cccc1OC[C@@H]1CCCCN1C(=O)c1ncccc1CCO [Compound 16, (S)-2-hydroxy-6-((1-(3-(2-hydroxyethyl)picolinoyl)piperidin-2-yl)methoxy)benzaldehyde]	49.55%	–	–	–
O=Cc1c(O)cccc1OC[C@@H]1COCCN1C(=O)c1ccccc1CO [Compound 23, 2-hydroxy-6-{[(3S)-4-[2-(hydroxymethyl)benzoyl]morpholin-3-yl]methoxy}benzaldehyde]	70.92%	59	62 h	–
O=Cc1c(O)cccc1OC[C@@H]1CCCN1C(=O)c1cccnc1CCO [Compound 9, (S)-2-hydroxy-6-((1-(2-(2-hydroxyethyl)-nicotinoyl)pyrrolidin-2-yl)methoxy)benzaldehyde]	62.2%	–	–	–
O=Cc1c(O)cccc1OC[C@@H]1COCCN1C(=O)c1nccnc1CCO [Compound 21, 2-hydroxy-6-{[(3S)-4-[3-(2-hydroxyethyl)pyrazine-2-carbonyl]morpholin-3-yl]methoxy}benzaldehyde]	60.21%	–	–	–
O=Cc1c(O)cccc1OC[C@@H]1COCCN1C(=O)c1ccccc1CCO [Compound 22, 2-hydroxy-6-{[(3S)-4-[2-(2-hydroxyethyl)benzoyl]morpholin-3-yl]methoxy}benzaldehyde]	70.32%	–	–	–
O=Cc1c(O)cccc1OC[C@@H]1CCCN1C(=O)c1nccnc1CCO [Compound 19, (S)-2-hydroxy-6-((1-(3-(2-hydroxyethyl)pyrazine-2-carbonyl)pyrrolidin-2-yl)methoxy)benzaldehyde]	54.67%	–	–	–
COCCc1nccnc1C(=O)N1CCC[C@H]1COc1cccc(O)c1C=O [Compound 25, 2-hydroxy-6-{[(2S)-1-[3-(2-methoxyethyl)pyrazine-2-carbonyl]pyrrolidin-2-yl]methoxy}benzaldehyde]	53.36%	–	–	–
COCCc1nccnc1C(=O)N1CCOC[C@H]1COc1cccc(O)c1C=O [Compound 27, 2-hydroxy-6-{[(3S)-4-[3-(2-methoxyethyl)pyrazine-2-carbonyl]morpholin-3-yl]methoxy}benzaldehyde]	66.58%	–	–	–
O=Cc1c(O)cccc1OC[C@@H]1CCCCN1C(=O)c1nccnc1CCO [Compound 7, (S)-2-hydroxy-6-((1-(3-(2-hydroxyethyl)pyrazine-2-carbonyl)piperidin-2-yl)methoxy)benzaldehyde]	62.7%	–	–	–
O=Cc1c(O)cccc1OCC1CSCCN1C(=O)c1cccnc1CCO (single isomer, unassigned) [10 (Enantiomer 2)]	87.3%	212	112 h	–
COCCc1ncccc1C(=O)N1CCCC[C@H]1COc1cccc(O)c1C=O [Compound 2, (S)-2-hydroxy-6-((1-(2-(2-methoxyethyl)nicotinoyl)piperidin-2-yl)methoxy)benzaldehyde]	84.4%	–	–	–
O=Cc1c(O)cccc1OC[C@@H]1CSCCN1C(=O)c1ccccc1C(O)CO (single isomer, unassigned) [35 (Diastereomer 2)]	83.1%	–	–	Blood/Plasma ratio [2, 4]: 636; T1/2 [2, 5]: 89 h
CC(O)Cc1ncccc1C(=O)N1CCSC[C@H]1COc1cccc(O)c1C=O (single isomer, unassigned) [44 (Diastereomer 1)]	66.57%	–	–	–
Cc1ncccc1C(=O)N1CCCC[C@H]1COc1cccc(O)c1C=O [Reference Compound C, reference compound]	–	–	–	CYP (PXR) Flag ([3]; at 25 μM): Y^1 (PXR activation ≥ 2.5-fold)
